For 28 compounds, IC50 results are on record in patent US9351974B2, “Substituted pteridinones for the treatment of cancer” (OSI Pharmaceuticals, LLC, priority 2011, dated 2016).

In this test the target is T1, His-tagged full-length RSK2 (RPS6KA3) (Homo sapiens, UniProt P51812).
T1 construct: His-tagged full-length RSK2 (RPS6KA3, Invitrogen PV3323); His; purchased Invitrogen PV3323
Description: RSK2 Omnia Assay for compound IC50 determination. The format is biochemical. As to conditions: ATP 15 μM, n=2, read-out: Mean RSK2 Biochem IC50. A digest of the protocol: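 Continuous fluorescence assay (ex 360/em 485 nm) of SOX-peptide (Omnia ST Peptide 6, 5 μM) phosphorylation with ATP 15 μM (Km 16.3 μM). Enzyme was […], in pH 7.5 HEPES/MgCl2 buffer with 1% DMSO. IC50 came from 11-point threefold dilutions ([…]) by four-parameter fit of initial slopes, in duplicate; Ki by Cheng-Prusoff assuming competitive inhibition.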

pIC50: −log10 of the molar value.

T1 sequence (P51812 whole entry): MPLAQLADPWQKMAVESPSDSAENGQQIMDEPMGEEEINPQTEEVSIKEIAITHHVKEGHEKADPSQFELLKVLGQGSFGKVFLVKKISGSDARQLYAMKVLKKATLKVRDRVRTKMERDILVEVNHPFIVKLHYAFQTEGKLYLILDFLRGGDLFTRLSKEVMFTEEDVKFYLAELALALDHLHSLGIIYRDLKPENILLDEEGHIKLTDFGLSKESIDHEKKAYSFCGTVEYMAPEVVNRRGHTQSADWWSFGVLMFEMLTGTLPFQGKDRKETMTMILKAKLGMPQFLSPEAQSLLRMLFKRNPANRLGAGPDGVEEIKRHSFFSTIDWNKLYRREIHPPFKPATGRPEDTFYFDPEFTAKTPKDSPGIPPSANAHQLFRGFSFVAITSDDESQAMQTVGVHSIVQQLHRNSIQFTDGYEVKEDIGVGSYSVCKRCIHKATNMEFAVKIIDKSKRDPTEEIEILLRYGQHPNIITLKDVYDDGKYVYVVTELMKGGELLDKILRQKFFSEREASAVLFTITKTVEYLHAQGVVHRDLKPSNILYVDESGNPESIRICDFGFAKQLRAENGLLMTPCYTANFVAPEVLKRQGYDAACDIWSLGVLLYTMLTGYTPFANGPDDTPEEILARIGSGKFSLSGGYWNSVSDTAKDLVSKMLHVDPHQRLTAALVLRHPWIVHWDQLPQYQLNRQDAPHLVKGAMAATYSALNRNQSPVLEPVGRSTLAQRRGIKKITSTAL

The term pIC50 denotes the IC50 on a negative log10 scale, so that one unit is a factor of ten. As for `C[C@@H]1C(=O)N(c2cccnc2)c2cnc(Nc3cc(F)c(O)c(F)c3)nc2N1C1CCCCC1` [compound 160, (7R)-8-cyclohexyl-2-[(3,5-difluoro-4-hydroxyphenyl)amino]-7-methyl-5-(pyridin-3-yl)-7,8-dihydropteridin-(5H)-one.], the pIC50 was not below 7.00.

Consider `CO[C@H]1CC[C@H](N2c3nc(Nc4cc(F)c5[nH]ncc5c4)ncc3N(c3ccc(N4CCN(C)CC4)nc3)C(=O)[C@H]2C)CC1` [compound 233, (7R)-2-[(7-fluoro-1H-indazol-5-yl)amino]-8-(trans-4-methoxycyclohexyl)-7-methyl-5-[6-(4-methylpiperazin-1-yl)pyridin-3-yl]-7,8-dihydropteridin-6(5H)-one], for which the pIC50 is not below 7.00.

Consider `CC[C@@H]1C(=O)N(c2ccc(OC)c(F)c2)c2cnc(Nc3cc(F)c4[nH]ncc4c3)nc2N1C1CCCCC1` [compound 294, (7R)-8-cyclohexyl-7-ethyl-2-[(7-fluoro-1H-indazol-5-yl)amino]-5-(3-fluoro-4-methoxyphenyl)-7,8-dihydropteridin-6(5H)-one], for which the pIC50 is not below 7.00.

Consider `C[C@@H]1C(=O)N(c2ccc(N3CCN(C)CC3)nc2)c2cnc(Nc3cc(F)c4[nH]ncc4c3)nc2N1[C@H]1CC[C@H](C)CC1` [compound 242, (7R)-2-[(7-fluoro-1H-indazol-5-yl)amino]-7-methyl-8-(trans-4-methylcyclohexyl)-5-[6-(4-methylpiperazin-1-yl)pyridin-3-yl]-7,8-dihydropteridin-6(5H)-one], for which the pIC50 is not below 7.00.

As for `C[C@@H]1C(=O)N(c2ccccc2)c2cnc(Nc3ccc4[nH]ncc4c3)nc2N1CC1CCOCC1` [Example 74, (7R)-2-(1H-indazol-5-ylamino)-7-methyl-5-phenyl-8-(tetrahydro-2H-pyran-4-ylmethyl)-7,8-dihydropteridin-6(5H)-one], the pIC50 was not below 7.00.

For `COc1ccc(N2C(=O)[C@@H](C)N(C3CCCCC3)c3nc(Nc4ccc(C(=O)O)cc4)ncc32)cc1OC` [compound 148, 4-{[(7R)-8-cyclohexyl-5-(3,4-dimethoxyphenyl)-7-methyl-6-oxo-5,6,7,8-tetrahydropteridin-2-yl]amino}benzoic acid], the pIC50 was not below 7.00.

Turning to `CC[C@@H]1C(=O)N(c2cccnc2)c2cnc(Nc3cc(F)c4[nH]ncc4c3)nc2N1C1CCCCC1` [compound 288, (7R)-8-cyclohexyl-7-ethyl-2-[(7-fluoro-1H-indazol-5-yl)amino]-5-(pyridin-3-yl)-7,8-dihydropteridin-6(5H)-one], the pIC50 was not below 7.00.

For the compound `C[C@@H]1C(=O)N(c2ccn(C)c(=O)c2)c2cnc(Nc3cnc4[nH]ncc4c3)nc2N1C1CCCCC1` [compound 175, (7R)-8-cyclohexyl-7-methyl-5-(1-methyl-2-oxo-1,2-dihydropyridin-4-yl)-2-(1H-pyrazolo[3,4-b]pyridin-5-ylamino)-7,8-dihydropteridin-6(5H)-one], the pIC50 was not below 7.00.

As for `C[C@@H]1C(=O)N(c2cccc(C#N)c2)c2cnc(Nc3cc(F)c4[nH]ncc4c3)nc2N1C1CCOCC1` [compound 186, 3-[(7R)-2-[(7-fluoro-1H-indazol-5-yl)amino]-7-methyl-6-oxo-8-(tetrahydro-2H-pyran-4-yl)-7,8-dihydropteridin-5(6H)-yl]benzonitrile], the pIC50 is not below 7.00.

On to `COc1ccc(N2C(=O)[C@@H](C)N(C3CCCCC3)c3nc(Nc4ccc5[nH]ncc5c4)ncc32)cn1` [Example 48, (7R)-8-cyclohexyl-2-(1H-indazol-5-ylamino)-5-(6-methoxypyridin-3-yl)-7-methyl-7,8-dihydropteridin-6(5H)-one], for which the pIC50 was not below 7.00.

`C[C@@H]1C(=O)N(c2cncc(C#N)c2)c2cnc(Nc3ccc4[nH]ncc4c3)nc2N1C1CCCCC1` [compound 128, 5-[(7R)-8-cyclohexyl-2-(1H-indazol-5-ylamino)-7-methyl-6-oxo-7,8-dihydropteridin-5(6H)-yl]pyridine-3-carbonitrile]: the pIC50 was not below 7.00.

For `CNS(=O)(=O)c1cccc(N2C(=O)[C@@H](C)N(C3CCCCC3)c3nc(Nc4ccc5[nH]ncc5c4)ncc32)c1` [Example 42, 3-[(7R)-8-cyclohexyl-2-(1H-indazol-5-ylamino)-7-methyl-6-oxo-7,8-dihydropteridin-5(6H)-yl]-N-methylbenzenesulfonamide], the pIC50 was not below 7.00.

Take `CC(C)N1c2nc(Nc3ccc4[nH]ncc4c3)ncc2N(c2ccccc2)C(=O)C1C` (stereo not shown) [Example 13, 2-(1H-indazol-5-ylamino)-7-methyl-5-phenyl-8-(propan-2-yl)-7,8-dihydropteridin-6(5H)-one]: the negative logarithm of the IC50 (pIC50) was 6.00 to 7.00.

For `COCc1cccc(N2C(=O)[C@@H](C)N(C3CCCCC3)c3nc(Nc4ccc5[nH]ncc5c4)ncc32)c1` [compound 110, (7R)-8-cyclohexyl-2-(1H-indazol-5-ylamino)-5-[3-(methoxymethyl)phenyl]-7-methyl-7,8-dihydropteridin-6(5H)-one], the pIC50 was not below 7.00.

Take `CC(C)Oc1ccc(N2C(=O)[C@@H](C)N([C@H]3CC[C@H](C)CC3)c3nc(Nc4cnc5[nH]ncc5c4)ncc32)cc1C#N` [compound 248, 5-[(7R)-7-methyl-8-(trans-4-methylcyclohexyl)-6-oxo-2-(1H-pyrazolo[3,4-b]pyridin-5-ylamino)-7,8-dihydropteridin-5(6H)-yl]-2-(propan-2-yloxy)benzonitrile]: the pIC50 was not below 7.00.

Turning to `CC(C)CCN1c2nc(Nc3cc(F)c4[nH]ncc4c3)ncc2N(c2cccc(C#N)c2)C(=O)[C@H]1C` [Example 86, 3-[(7R)-2-[(7-fluoro-1H-indazol-5-yl)amino]-7-methyl-8-(3-methylbutyl)-6-oxo-7,8-dihydropteridin-5(6H)-yl]benzonitrile], the pIC50 is not below 7.00.

Regarding `CC1C(=O)N(c2ccccc2)c2cnc(Nc3ccc4c(c3)CC(=O)N4)nc2N1C1CCCC1` (stereo not shown) [Example 65, 8-cyclopentyl-7-methyl-2-[(2-oxo-2,3-dihydro-1H-indol-5-yl)amino]-5-phenyl-7,8-dihydropteridin-6(5H)-one], the pIC50 was not below 7.00.

`C[C@@H]1C(=O)N(c2cccc(C#N)c2)c2cnc(Nc3ccc4[nH]ncc4c3F)nc2N1C1CCOCC1` [compound 185, 3-[(7R)-2-[(4-fluoro-1H-indazol-5-yl)amino]-7-methyl-6-oxo-8-(tetrahydro-2H-pyran-4-yl)-7,8-dihydropteridin-5(6H)-yl]benzonitrile]: the pIC50 was not below 7.00.

With `COc1ccc(N2c3nc(Nc4cc(F)c5[nH]ncc5c4)ncc3N(c3cccc(C#N)c3)C(=O)[C@H]2C)cc1` [compound 182, 3-[(7R)-2-[(7-fluoro-1H-indazol-5-yl)amino]-8-(4-methoxyphenyl)-7-methyl-6-oxo-7,8-dihydropteridin-5(6H)-yl]benzonitrile], the pIC50 was not below 7.00.

Consider `C[C@@H]1C(=O)N(c2cccc(C#N)c2)c2cnc(Nc3ccc4[nH]ncc4c3)nc2N1CC1CCOC1` (stereo partly drawn) [Example 82, 3-[(7R)-2-(1H-indazol-5-ylamino)-7-methyl-6-oxo-8-(tetrahydrofuran-3-ylmethyl)-7,8-dihydropteridin-5(6H)-yl]benzonitrile], for which the pIC50 is not below 7.00.

As to `COc1cccc(N2C(=O)[C@@H](C)N(C3CCCCC3)c3nc(Nc4ccc5[nH]ncc5c4)ncc32)c1` [Example 28, (7R)-8-cyclohexyl-2-(1H-indazol-5-ylamino)-5-(3-methoxyphenyl)-7-methyl-7,8-dihydropteridin-6(5H)-one], the pIC50 was not below 7.00.

With `C[C@@H]1C(=O)N(c2cccc(C#N)c2)c2cnc(Nc3cc4cn[nH]c4cc3F)nc2N1C1CCCCC1` [Example 56, 3-[(7R)-8-cyclohexyl-2-[(6-fluoro-1H-indazol-5-yl)amino]-7-methyl-6-oxo-7,8-dihydropteridin-5(6H)-yl]benzonitrile], the pIC50 is not below 7.00.

`C[C@@H]1C(=O)N(c2ccccc2)c2cnc(Nc3ccc4[nH]ncc4c3)nc2N1CC1CCCC1` [Example 75, (7R)-8-(cyclopentylmethyl)-2-(1H-indazol-5-ylamino)-7-methyl-5-phenyl-7,8-dihydropteridin-6(5H)-one]: the pIC50 is not below 7.00.

In the case of `C[C@@H]1C(=O)N(c2cccc(F)c2)c2cnc(Nc3ccc4[nH]ncc4c3F)nc2N1C1CCCCC1` [compound 120, (7R)-8-cyclohexyl-2-[(4-fluoro-1H-indazol-5-yl)amino]-5-(3-fluorophenyl)-7-methyl-7,8-dihydropteridin-6(5H)-one], the pIC50 was not below 7.00.

For `COc1ccc(N2C(=O)[C@@H](C)N(C3CCOCC3)c3nc(Nc4ccc5[nH]nc(F)c5c4)ncc32)cc1OC` [compound 187, (7R)-5-(3,4-dimethoxyphenyl)-2-[(3-fluoro-1H-indazol-5-yl)amino]-7-methyl-8-(tetrahydro-2H-pyran-4-yl)-7,8-dihydropteridin-6(5H)-one], the pIC50 is not below 7.00.

With `C[C@@H]1C(=O)N(c2cccnc2)c2cnc(Nc3cc(F)c4[nH]ncc4c3)nc2N1C1CCC(C)(C)CC1` [Example 208, (7R)-8-(4,4-dimethylcyclohexyl)-2-[(7-fluoro-1H-indazol-5-yl)amino]-7-methyl-5-(pyridin-3-yl)-7,8-dihydropteridin-6(5H)-one], the pIC50 is not below 7.00.

Consider `CC(C)CCN1c2nc(Nc3cccc(C(=O)O)c3)ncc2N(c2ccccc2)C(=O)C1C` (stereo not shown) [Example 15, 3-{[7-methyl-8-(3-methylbutyl)-6-oxo-5-phenyl-5,6,7,8-tetrahydropteridin-2-yl]amino}benzoic acid], for which the pIC50 was less than 6.00.

Regarding `C[C@@H]1C(=O)N(c2cccc(C#N)c2)c2cnc(Nc3cc(F)c4[nH]ncc4c3)nc2N1[C@H]1CC[C@@H](C)CC1` [compound 236, 3-[(7R)-2-[(7-fluoro-1H-indazol-5-yl)amino]-7-methyl-8-(cis-4-methylcyclohexyl)-6-oxo-7,8-dihydropteridin-5(6H)-yl]benzonitrile], the pIC50 is not below 7.00.
